In ChEMBL document CHEMBL2151024, “Synthesis and Biological Evaluation of a Biotinylated Paclitaxel With an Extra-Long Chain Spacer Arm” (ACS Med Chem Lett, 2012):
Activity calls are given as the source filed them. The rule behind the calls is not given here.

Key:
Tubulin = Tubulin (Sus scrofa, UniProt P02554+P02550); assay: Induction of porcine brain tubulin polymerization after 20 mins by Bradford assay
[1] = Stabilization of microtubule by fluorescence microscopy
[2] = Stabilization of microtubule using Cy3-streptavidin-tagged compound by fluorescence microscopy

Question: What does the source list for `CC(=O)O[C@H]1C(=O)[C@@]2(C)[C@H]([C@H](OC(=O)c3ccccc3)[C@]3(O)C[C@H](OC(=O)[C@H](O)[C@@H](NC(=O)c4ccccc4)c4ccccc4)C(C)=C1C3(C)C)[C@]1(OC(C)=O)CO[C@@H]1C[C@@H]2O` [PACLITAXEL]?
Answer: EC50 (Tubulin): 0.52 µM; Activity [1]: Active

Question: For `CC(=O)O[C@H]1C(=O)[C@]2(C)[C@@H](OC(=O)CCNC(=O)CCCCCNC(=O)CCCCCNC(=O)CCCC[C@@H]3SC[C@@H]4NC(=O)N[C@@H]43)C[C@H]3OC[C@@]3(OC(C)=O)[C@H]2[C@H](OC(=O)c2ccccc2)[C@]2(O)C[C@H](OC(=O)[C@H](O)[C@@H](NC(=O)c3ccccc3)c3ccccc3)C(C)=C1C2(C)C`, which Activity [2] is on record?
Answer: Active

Question: And the EC50 (Tubulin)?
Answer: 0.68 µM

Question: And the Activity [1]?
Answer: Active
